Data published in patent US10781201B2, “Benzimidazole derivative having JNK inhibitory activity and use thereof” (INDUSTRY-UNIVERSITY COOPERATION FOUNDATION HANYANG …, priority 2017, dated 2020).
One block for each molecule: values may come before it.

Key:
[1] = tested on: P-gp(MDR1)-overexpressing Caco-2-MDR1 cells; test: Evaluation of migration of blood-brain barrier (BBB migration evaluation system); type: in vitro ADME; conditions: class in words
Description: (§1) The blood-brain barrier (BBB) functions as a primary barrier to prevent the invasion of foreign substances, but acts as an obstacle to treatment in pathological circumstances. That is, therapeutics for the treatment of brain diseases or maintaining the condition thereof are very unlikely to permeate the blood-brain barrier, and thus are unable to be effectively used, and accordingly, the selection of drugs for the treatment of brain diseases is limited. […] […] amount of material permeating into mebrain, A: area, and C0: initial concentration of material)

[2] = tested on: P-gp (MDR1); test: as above; type: in vitro ADME; conditions: human, Caco-2-MDR1 cells; for Papp A→B: apical to basolateral, read-out: A to B (permeability coefficient Papp); for Papp B→A: basolateral to apical, read-out: B to A (permeability coefficient Papp)
Description: as §1

[3] = target: human JNK3 enzyme (Homo sapiens, UniProt P53779); test: Measurement of JNK3 enzymatic activity (33P-ATP filter-binding method); type: biochemical; conditions: ATP 10 μM, ATF2 3 μM
Description: First, a substrate was added to a prepared base reaction buffer solution (20 mM Hepes (pH 7.5), 10 mM MgCl2, 1 mM EGTA, 0.02% Brij35, 0.02 mg/ml BSA, 0.1 mM Na3VO4, 2 mM DTT, 1% DMSO), a human JNK3 enzyme was added into the prepared substrate solution, and the resulting solution was mixed. ATP (10 μM) and ATF2 (3 μM) were used as substrates, and among them, ATP was used as a common substrate. Next, the compound according to the present invention dissolved in 100% DMSO was added to an enzyme reaction solution, and incubated at room temperature for 20 minutes. Subsequently, ^33P-ATP was added to the mixed reaction solution to initiate the reaction, followed by incubation at room temperature for 2 hours, and enzymatic activity was detected by a filter-binding method. Specifically, 25 al per resulting solution was slowly spotted on P81 paper and placed in a scintillation vial, and then the paper was washed four times with 0.75% phosphoric acid for 10 minutes each and washed once with acetone for 5 minutes. 5 ml of a scintillation cocktail was added to the scintillation vial and signals were read using a scintillation counter.

[4] = tested on: Alzheimer's disease transgenic mice; test: Reducing concentration of APP and beta-amyloid oligomer in brain tissue, western blotting; type: in vivo; conditions: IV 15 mg/kg/day three times per 1 week for a total of 2 weeks, compared to non-treated 2×TG(veh)
Description: JNK3 is known to phosphorylate and activate amyloid precursor protein (APP), which is the main cause of Alzheimer's disease, to thus allow the APP to be located in a cell membrane, and promotes the conversion of APP to beta-amyloid, and it has been reported that, even in a case in which, after beta-amyloid is formed, the apoptosis of neurons is induced by toxicity thereof, the activation of JNK3 acts as a main cause. Based on these facts, in the present experimental example, the derivative of the present invention (compound 35d) was administered via intravenous injection (IV) to Alzheimer's disease transgenic mice in a dose of 15 mg/kg/day three times per 1 week for a total of 2 weeks, and then changes in the concentration of APP and beta-amyloid oligomer in the frontal lobe cortex were confirmed through western blotting. Meanwhile, normal mice (WT(veh)) were used as a control, and non-treated Alzheimer's disease transgenic mice (2×TG(veh)) were used as a comparative group.

Sequence of human JNK3 enzyme (P53779 whole entry): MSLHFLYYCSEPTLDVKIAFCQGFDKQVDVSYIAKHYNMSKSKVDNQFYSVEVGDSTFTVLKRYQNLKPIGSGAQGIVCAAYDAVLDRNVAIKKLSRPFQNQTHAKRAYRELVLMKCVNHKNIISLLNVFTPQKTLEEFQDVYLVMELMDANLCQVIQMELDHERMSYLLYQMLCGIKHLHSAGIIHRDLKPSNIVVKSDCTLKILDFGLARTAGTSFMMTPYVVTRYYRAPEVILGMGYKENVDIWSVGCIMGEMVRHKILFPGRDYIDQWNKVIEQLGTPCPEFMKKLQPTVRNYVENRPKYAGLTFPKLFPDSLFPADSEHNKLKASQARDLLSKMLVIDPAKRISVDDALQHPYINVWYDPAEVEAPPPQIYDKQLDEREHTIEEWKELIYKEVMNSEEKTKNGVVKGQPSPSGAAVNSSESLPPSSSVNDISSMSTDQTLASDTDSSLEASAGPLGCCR

IC50 ([3]; Table 3): < 30 nM
SMILES: O=C(C1CC1)N1CCC[C@@H](Nc2nccc(-n3c(-c4ccc5ccccc5c4)nc4cc(O)c(O)cc43)n2)C1 [Compound 35a, (R)-cyclopropyl(3-(4-(5,6-dihydroxy-2-(naphthalene-2-yl)-1H-benzo[d]imidazole-1-yl)pyrimidin-2-ylamino)piperidine-1-yl)methanone]

IC50 ([3]; Table 3): < 30 nM
SMILES: O=C(C1CC1)N1CCC[C@@H](Nc2nccc(-n3c(-c4ccc(Cl)c(Cl)c4)nc4cc(O)c(O)cc43)n2)C1 [Compound 35b, (R)-cyclopropyl(3-(4-(2-(3,4-dichlorophenyl)-5,6-dihydroxy-1H-benzo[d]imidazole-1-yl)pyrimidin-2-ylamino)piperidine-1-yl)methanone]

Permeability [1]: High
efflux ratio [2]: 1.13
Papp A→B [2]: 17.3 ×10⁻⁶ cm/s
Papp B→A [2]: 19.6 ×10⁻⁶ cm/s
IC50 ([3]; Table 3): < 30 nM
SMILES: O=C(C1CC1)N1CCC[C@@H](Nc2nccc(-n3c(-c4ccc5c(c4)OCCO5)nc4cc(O)c(O)cc43)n2)C1 [Compound 35d, (R)-cyclopropyl(3-(4-(2-(2,3-dihydrobenzo[b][1,4]dioxin-6-yl)-5,6-dihydroxy-1H-benzo[d]imidazole-1-yl)pyrimidin-2-ylamino)piperidine-1-yl)methanone]
concentration of beta-amyloid oligomer in the frontal lobe cortex [4]: significantly reduced
expression level of APP in the frontal lobe cortex [4]: significantly reduced

IC50 ([3]; Table 3): < 30 nM
SMILES: O=C(C1CC1)N1CCC[C@@H](Nc2nccc(-n3c(-c4ccc5occc5c4)nc4cc(O)c(O)cc43)n2)C1 [Compound 35e, (R)-(3-(4-(2-(benzofuran-5-yl)-5,6-dihydroxy-1H-benzo[d]imidazole-1-yl)pyrimidin-2-ylamino)piperidine-1-yl)(cyclopropyl)methanone]

The remaining lines, values behind:

SMILES: O=C(C1CC1)N1CCC[C@H](Nc2nccc(-n3c(-c4ccc5c(c4)OCCO5)nc4ccc(O)cc43)n2)C1 [Compound 26c, (S)-cyclopropyl(3-((4-(2-(2,3-dihydrobenzo[b][1,4]dioxin-6-yl)-6-hydroxy-1H-benzo[d]imidazole-1-yl)pyrimidin-2-yl)amino)piperidine-1-yl)methanone]
Permeability [1]: High
efflux ratio [2]: 1.03
Papp A→B [2]: 19.2 ×10⁻⁶ cm/s
Papp B→A [2]: 19.9 ×10⁻⁶ cm/s
IC50 ([3]; Table 2): 30 to 100 nM

SMILES: O=C(C1CC1)N1CCC[C@@H](Nc2nccc(-n3c(-c4ccc(F)c(C(F)(F)F)c4)nc4cc(O)c(O)cc43)n2)C1 [Compound 35c, (R)-cyclopropyl(3-(4-(2-(4-fluoro-3-(trifluoromethyl)phenyl)-5,6-dihydroxy-1H-benzo[d]imidazole-1-yl)pyrimidin-2-ylamino)piperidine-1-yl)methanone]
IC50 ([3]; Table 3): < 30 nM

SMILES: Oc1c2ccccc2c2c3c(cccc13)N=N2 [SP600125, reference compound]
IC50 ([3]; Table 1): 30 to 100 nM
IC50 ([3]; Table 2): 30 to 100 nM
IC50 ([3]; Table 3): 30 to 100 nM
